Target: T1, GloA (Salmonella enterica, UniProt P0A1Q2)
T1 construct: full length, His-tag (modified pET28a, tac promoter), E. coli BL21(DE3); unglycosylated form
T1 sequence (P0A1Q2 1-135): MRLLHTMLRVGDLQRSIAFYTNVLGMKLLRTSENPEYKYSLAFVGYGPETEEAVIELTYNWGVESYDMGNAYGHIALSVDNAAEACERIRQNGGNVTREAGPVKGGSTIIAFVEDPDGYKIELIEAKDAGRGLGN
Assay: S-lactoylglutathione production at OD240
Format: biochemical
Details: unglycosylated GloA 50 nM; hemithioacetal from 5 mM glutathione + 5 mM methylglyoxal; 100 mM NaH2PO4 pH 7.0

## C[C@@H](O)C(=O)SC[C@H](NC(=O)CC[C@H](N)C(=O)O)C(=O)NCC(=O)O [S-lactoylglutathione]
  S-lactoylglutathione production at OD240: both hemithioacetal consumption and S-lactoylglutathione production was measured as a function of time
